Test results: US5633219A, “5H-pyrrolo(3',4':5,6)(1,4)dithiin o(2,3-C)(1,2,5)thiadiazole-5,7(6H)-dione, compositions containing them and their use as antimicrobial and marine antifouling agents” (The Dow Chemical Company, priority 1996, dated 1997)
In brackets after ≈: the same amount, converted by molar mass. Read-outs that look alike come from different tables or passages of the source.

Legend:
[1] = system: Pseudomonas aeruginosa (Pa); test: Minimum inhibitory concentration, nutrient agar, Pseudomonas aeruginosa; format: cell-based, Pseudomonas aeruginosa ATCC 10145; settings: 30° C, 48 hours
[2] = system: Saccharomyces cerevisiae (Sc); test: Minimum inhibitory concentration, malt yeast agar, Saccharomyces cerevisiae; format: cell-based, Saccharomyces cerevisiae ATCC 4105; settings: read-out: Minimum Inhibitory Concentration, Sc
Procedure: (§1) Malt yeast agar is prepared by adding 3 g yeast extract and 45 g malt agar per liter of deionized water. The specific agar is dispensed in 30 mL aliquots into 25×200 mm test tubes, capped and autoclaved for 15 minutes at 115° C.
(§2) The inoculation with the yeast and fungi is accomplished as follows. Cultures of yeast and fungi are incubated for seven days on malt yeast agar at 30° C. These cultures are used to prepare suspensions by the following procedure. A suspension of each organism is prepared by adding 10 mL of sterile saline and 10 microliters of octylphenoxy polyethoxy ethanol to the agar slant of yeast or fungi. The sterile saline/octylphenoxy polyethoxy ethanol solution is then agitated with a sterile swab to suspend the microorganism grown on the slant. Each resulting suspension is diluted into sterile saline (1 part suspension to 9 parts sterile saline). Aliquots of these dilutions are placed in individual wells of Steer's Replicator and petri plates inoculated as previously described. The petri plates are incubated at 30° C. and read after 48 hours for yeast and 72 hours for fungi.

Fusarium oxysporum (Of) = test: Minimum inhibitory concentration, malt yeast agar, Fusarium oxysporum; format: cell-based, Fusarium oxysporum ATCC 48112; settings: 30° C, 72 hours (fungi), read-out: Minimum Inhibitory Concentration, Fo
Procedure: as §1, §2

Bacillus subtilis (Bs) = test: Minimum inhibitory concentration, nutrient agar, Bacillus subtilis; settings: 48 h
[3] = system: Staphylococcus aureus (Sa); test: Minimum inhibitory concentration, nutrient agar, Staphylococcus aureus; settings: 48 h
[4] = system: Enterobacter aerogenes (Ea); test: Minimum inhibitory concentration, nutrient agar, Enterobacter aerogenes; settings: Klebsiella aerogenes, 48 h
Candida albicans (Ca) = test: Minimum inhibitory concentration, malt yeast agar, Candida albicans; format: cell-based, Candida albicans ATCC 10231; settings: read-out: Minimum Inhibitory Concentration, Ca
Procedure: as §1, §2

[5] = system: Klebsiella pneumoniae (Kp); test: Minimum inhibitory concentration, nutrient agar, Klebsiella pneumoniae; settings: 48 h
Escherichia coli (Ec) = test: Minimum inhibitory concentration, nutrient agar, Escherichia coli; settings: 48 h
Trichoderma viride (Tv) = test: Minimum inhibitory concentration, malt yeast agar, Trichoderma viride; format: cell-based, Trichoderma viride ATCC 8678; settings: read-out: Minimum Inhibitory Concentration, Tv
Procedure: as §1, §2

[6] = system: Penicillium chrysogenum (PC); test: Minimum inhibitory concentration, malt yeast agar, Penicillium chrysogenum; format: cell-based, Penicillium chrysogenum ATCC 9480; settings: read-out: Minimum Inhibitory Concentration, Pc
Procedure: as §1, §2

Aspergillus niger (An) = test: Minimum inhibitory concentration, malt yeast agar, Aspergillus niger; format: cell-based, Aspergillus niger ATCC 16404; settings: 30° C, 72 hours (fungi)
Procedure: as §1, §2

Proteus vulgaris (Pv) = test: Minimum inhibitory concentration, nutrient agar, Proteus vulgaris; settings: 48 h
[7] = system: Salmonella choleraesuis (Sc); test: Minimum inhibitory concentration, nutrient agar, Salmonella choleraesuis; format: cell-based, Salmonella choleraesuis ATCC 10708; settings: Salmonella enterica, 30° C, 48 hours
[8] = system: Pseudomonas aeruginosa (PRD-10); test: Minimum inhibitory concentration, nutrient agar, Pseudomonas aeruginosa PRD-10; settings: 48 h
[9] = system: Aureobasidium pullulan (Ap); test: Minimum inhibitory concentration, malt yeast agar, Aureobasidium pullulan; format: cell-based, Aureobasidium pullulan ATCC 16622; settings: 30° C, 48 hours for yeast and 72 hours for fungi
Procedure: as §1, §2

[10] = malt yeast agar, 30° C, 48 hours (yeast)
[11] = pH 6.8, read-out: Minimum inhibitory Concentration, Bs
[12] = pH 8.2, read-out: Minimum inhibitory Concentration, Bs
[13] = pH 6.8, read-out: Minimum inhibitory Concentration, Sa
[14] = pH 8.2, read-out: Minimum inhibitory Concentration, Sa
[15] = pH 6.8, read-out: Minimum inhibitory Concentration, Ea
[16] = pH 8.2, read-out: Minimum inhibitory Concentration, Ea
[17] = pH 6.8, read-out: Minimum inhibitory Concentration, Kp
[18] = pH 8.2, read-out: Minimum inhibitory Concentration, Kp
[19] = pH 6.8, read-out: Minimum inhibitory Concentration, Ec
[20] = pH 8.2, read-out: Minimum inhibitory Concentration, Ec
[21] = malt yeast agar, 30° C, 72 hours (fungi)
[22] = pH 6.8, read-out: Minimum inhibitory Concentration, Pv
[23] = pH 8.2, read-out: Minimum inhibitory Concentration, Pv
[24] = pH 6.8, read-out: Minimum inhibitory Concentration, PRD
[25] = pH 8.2, read-out: Minimum inhibitory Concentration, PRD

## Cn1c(=O)c2sc3nsnc3sc=2c1=O [II, 6-Methyl-5H-Pyrrolo (3',4':5,6)(1,4)dithiino-(2,3-C)(1,2,5)thiadiazole-5,7(6H) -dione]
[1]; pH 6.8, nutrient agar
  MIC: > 500 µg/mL
[1]; pH 8.2, nutrient agar
  MIC: > 500 µg/mL
[2]; [10]
  MIC: < 1 µg/mL
Fusarium oxysporum (Of)
  MIC: < 1 µg/mL
Bacillus subtilis (Bs); [11]
  MIC: < 10 µg/mL
Bacillus subtilis (Bs); [12]
  MIC: 250 µg/mL (≈ 972 µM)
[3]; [13]
  MIC: 50 µg/mL (≈ 194 µM)
[3]; [14]
  MIC: 250 µg/mL (≈ 972 µM)
[4]; [15]
  MIC: > 500 µg/mL
[4]; [16]
  MIC: > 500 µg/mL
Candida albicans (Ca); [10]
  MIC: < 1 µg/mL
[5]; [17]
  MIC: 250 µg/mL (≈ 972 µM)
[5]; [18]
  MIC: > 500 µg/mL
Escherichia coli (Ec); [19]
  MIC: 50 µg/mL (≈ 194 µM)
Escherichia coli (Ec); [20]
  MIC: > 500 µg/mL
Trichoderma viride (Tv); [21]
  MIC: < 1 µg/mL
[6]; [21]
  MIC: < 1 µg/mL
Aspergillus niger (An)
  MIC: < 1 µg/mL
Proteus vulgaris (Pv); [22]
  MIC: 25 µg/mL (≈ 97.2 µM)
Proteus vulgaris (Pv); [23]
  MIC: > 500 µg/mL
[7]; pH 6.8, nutrient agar
  MIC: 100 µg/mL (≈ 389 µM)
[7]; pH 8.2, nutrient agar
  MIC: > 500 µg/mL
[8]; [24]
  MIC: > 500 µg/mL
[8]; [25]
  MIC: > 500 µg/mL
[9]
  MIC: < 1 µg/mL

## CCn1c(=O)c2sc3nsnc3sc=2c1=O [III, 6-Ethyl-5H-Pyrrolo(3',4':5,6)(1,4)dithiino-(2,3-C)(1,2,5)thiadiazole-5,7(6H) -dione]
[1]; pH 6.8, nutrient agar
  MIC: > 500 µg/mL
[1]; pH 8.2, nutrient agar
  MIC: > 500 µg/mL
[2]; [10]
  MIC: < 10 µg/mL
Fusarium oxysporum (Of)
  MIC: 250 µg/mL (≈ 921 µM)
Bacillus subtilis (Bs); [11]
  MIC: 25 µg/mL (≈ 92.1 µM)
Bacillus subtilis (Bs); [12]
  MIC: 100 µg/mL (≈ 369 µM)
[3]; [13]
  MIC: 50 µg/mL (≈ 184 µM)
[3]; [14]
  MIC: 250 µg/mL (≈ 921 µM)
[4]; [15]
  MIC: > 500 µg/mL
[4]; [16]
  MIC: > 500 µg/mL
Candida albicans (Ca); [10]
  MIC: < 10 µg/mL
[5]; [17]
  MIC: 500 µg/mL (≈ 1840 µM)
[5]; [18]
  MIC: > 500 µg/mL
Escherichia coli (Ec); [19]
  MIC: 50 µg/mL (≈ 184 µM)
Escherichia coli (Ec); [20]
  MIC: > 500 µg/mL
Trichoderma viride (Tv); [21]
  MIC: 500 µg/mL (≈ 1840 µM)
[6]; [21]
  MIC: 25 µg/mL (≈ 92.1 µM)
Proteus vulgaris (Pv); [22]
  MIC: 50 µg/mL (≈ 184 µM)
Proteus vulgaris (Pv); [23]
  MIC: > 500 µg/mL
[7]; pH 6.8, nutrient agar
  MIC: 250 µg/mL (≈ 921 µM)
[7]; pH 8.2, nutrient agar
  MIC: > 500 µg/mL
[8]; [24]
  MIC: > 500 µg/mL
[8]; [25]
  MIC: > 500 µg/mL
[9]
  MIC: < 10 µg/mL

## CCCCCCn1c(=O)c2sc3nsnc3sc=2c1=O [V, 6-n-Hexyl-5H-Pyrrolo (3',4':5,6)(1,4)dithiino-(2,3-C)(1,2,5)thiadiazole-5,7(6H) -dione]
[1]; pH 6.8, nutrient agar
  MIC: > 500 µg/mL
[1]; pH 8.2, nutrient agar
  MIC: > 500 µg/mL
[2]; 48 h
  MIC: 25 µg/mL (≈ 76.3 µM)
Bacillus subtilis (Bs); [11]
  MIC: < 10 µg/mL
Bacillus subtilis (Bs); [12]
  MIC: 25 µg/mL (≈ 76.3 µM)
[3]; [13]
  MIC: < 10 µg/mL
[3]; [14]
  MIC: < 10 µg/mL
[4]; [15]
  MIC: > 500 µg/mL
[4]; [16]
  MIC: > 500 µg/mL
Candida albicans (Ca); 48 h
  MIC: 25 µg/mL (≈ 76.3 µM)
[5]; [17]
  MIC: > 500 µg/mL
[5]; [18]
  MIC: > 500 µg/mL
Escherichia coli (Ec); [19]
  MIC: > 500 µg/mL
Escherichia coli (Ec); [20]
  MIC: > 500 µg/mL
Trichoderma viride (Tv); 72 h
  MIC: 50 µg/mL (≈ 153 µM)
[6]; [21]
  MIC: 25 µg/mL (≈ 76.3 µM)
Proteus vulgaris (Pv); [22]
  MIC: > 500 µg/mL
Proteus vulgaris (Pv); [23]
  MIC: > 500 µg/mL
[7]; pH 6.8, nutrient agar
  MIC: > 500 µg/mL
[7]; pH 8.2, nutrient agar
  MIC: > 500 µg/mL
[8]; [24]
  MIC: > 500 µg/mL
[8]; [25]
  MIC: > 500 µg/mL
[9]
  MIC: 25 µg/mL (≈ 76.3 µM)

## O=c1c2sc3nsnc3sc=2c(=O)n1-c1ccccc1 [VI, 6-Phenyl-5H-Pyrrolo(3',4':5,6)(1,4)dithiino-(2,3-C)(1,2,5)thiadiazole-5,7 (6H) -dione]
[1]; pH 6.8, nutrient agar
  MIC: > 500 µg/mL
[1]; pH 8.2, nutrient agar
  MIC: > 500 µg/mL
[2]; [10]
  MIC: 100 µg/mL (≈ 313 µM)
Fusarium oxysporum (Of)
  MIC: 250 µg/mL (≈ 783 µM)
Bacillus subtilis (Bs); [11]
  MIC: < 10 µg/mL
Bacillus subtilis (Bs); [12]
  MIC: 100 µg/mL (≈ 313 µM)
[3]; [13]
  MIC: 25 µg/mL (≈ 78.3 µM)
[3]; [14]
  MIC: 50 µg/mL (≈ 157 µM)
[4]; [15]
  MIC: > 500 µg/mL
[4]; [16]
  MIC: > 500 µg/mL
Candida albicans (Ca); [10]
  MIC: 250 µg/mL (≈ 783 µM)
[5]; [17]
  MIC: > 500 µg/mL
[5]; [18]
  MIC: > 500 µg/mL
Escherichia coli (Ec); [19]
  MIC: > 500 µg/mL
Escherichia coli (Ec); [20]
  MIC: > 500 µg/mL
Trichoderma viride (Tv); [21]
  MIC: 500 µg/mL (≈ 1570 µM)
[6]; 72 h
  MIC: < 10 µg/mL
Aspergillus niger (An)
  MIC: < 10 µg/mL
Proteus vulgaris (Pv); [22]
  MIC: > 500 µg/mL
Proteus vulgaris (Pv); [23]
  MIC: > 500 µg/mL
[7]; pH 6.8, nutrient agar
  MIC: > 500 µg/mL
[7]; pH 8.2, nutrient agar
  MIC: > 500 µg/mL
[8]; [24]
  MIC: > 500 µg/mL
[8]; [25]
  MIC: > 500 µg/mL
[9]
  MIC: < 10 µg/mL

## O=c1c2sc3nsnc3sc=2c(=O)n1CCc1ccccc1 [VII, 6-(2-Phenethyl)-5H-Pyrrolo(3',4':5,6)(1,4)dithiino-(2,3-C)(1,2,5)thiadiazole-5,7(6H)-dione]
[1]; pH 6.8, nutrient agar
  MIC: > 500 µg/mL
[1]; pH 8.2, nutrient agar
  MIC: > 500 µg/mL
[2]; [10]
  MIC: 250 µg/mL (≈ 720 µM)
Fusarium oxysporum (Of)
  MIC: > 500 µg/mL
Bacillus subtilis (Bs); [11]
  MIC: > 500 µg/mL
Bacillus subtilis (Bs); [12]
  MIC: > 500 µg/mL
[3]; [13]
  MIC: > 500 µg/mL
[3]; [14]
  MIC: > 500 µg/mL
[4]; [15]
  MIC: > 500 µg/mL
[4]; [16]
  MIC: > 500 µg/mL
Candida albicans (Ca); [10]
  MIC: > 500 µg/mL
[5]; [17]
  MIC: > 500 µg/mL
[5]; [18]
  MIC: > 500 µg/mL
Escherichia coli (Ec); [19]
  MIC: > 500 µg/mL
Escherichia coli (Ec); [20]
  MIC: > 500 µg/mL
Trichoderma viride (Tv); [21]
  MIC: > 500 µg/mL
[6]; [21]
  MIC: > 500 µg/mL
Aspergillus niger (An)
  MIC: 100 µg/mL (≈ 288 µM)
Proteus vulgaris (Pv); [22]
  MIC: > 500 µg/mL
Proteus vulgaris (Pv); [23]
  MIC: > 500 µg/mL
[7]; pH 6.8, nutrient agar
  MIC: > 500 µg/mL
[7]; pH 8.2, nutrient agar
  MIC: > 500 µg/mL
[8]; [24]
  MIC: > 500 µg/mL
[8]; [25]
  MIC: > 500 µg/mL
[9]
  MIC: 100 µg/mL (≈ 288 µM)
